Results as given in patent US12703851B2, “Cell culture methods” (The University of Massachusetts, priority 2019, dated 2026).
Entries after “also recorded” stand apart in the source; their conditions may differ.

Tests used:
Format in all cases: cell-based, Chinese hamster
CHO-S cells = assay: Inhibitory metabolite accumulation in transiently transfected CHO-S subclones (LC-MS); design: dose or concentration left out as unconfirmed; conditions: 6 days
Experimental: FIG. 17A-G are graphs showing inhibitory metabolite accumulation in different subclones. Accumulation concentration of metabolites shown here: FIG. 17A, CMP; FIG. 17B, GMP; FIG. 17C, HICA, FIG. 17D, MSA, FIG. 17E, NAP, FIG. 17F, TAA; and FIG. 17G, TRI. The study was divided into […] unique subclone groups. […] A negative control was included where no plasmid transfection occurred. Each subclone was cultured for 6 days at which time cells and cell culture supernatant were collected. Cells for both the control and transfection subclones were derived from the same culture to eliminate variation in growth cycle and other culture conditions. Quantification of inhibitory metabolites accumulation was performed through LC-MS. Bars, mean±s.e.m.; n=3, *p<0.05, **p<0.01, ***p<0.001. Statistics by two-tailed t-test. LC-MS/MS method for metabolites profiling: Standards of metabolites were purchased from Sigma Aldrich (St. Louis, MO) and used for identification of wasted inhibitor metabolites. Operating parameters and samples preparation protocol were followed to a previously published protocol. Quantification of expression level of transfected gene of interest through qPCR. The expression level of seven different genes transfected into CHO-S cells were evaluated using relative quantification (RQ) compared to the calibrator. The study was divided into eight unique subclone groups. […] A negative control was included in the study where no genetic engineering work involving plasmid transfection occurred. Each subclone was cultured for 6 days. Cells for both the control and transfection subclones were derived from the same culture to eliminate variation in growth cycle and other culture conditions. […] Gene functionality study through metabolic pathway analysis. As mentioned previously, HICA is generated as the downstream metabolite from the metabolism of leucine in mammalian cells, of which cellular biochemical activities are regulated by ADH5 and BCAT1 enzymes. […] A negative control was included in the study where no genetic engineering work involving plasmid transfection occurred.

CHO K-1 = assay: Batch culture spiking of metabolites at end-of-culture concentration; conditions: spiked at end-of-culture concentration, 6 days batch culture
Experimental: CHO K-1 industrial standard batch process: NIH CHO-K1 cell line is cultured for 6 days, with 6 mM glutamine supplement on the inoculation day. The working volume is 30 mL in 125 mL shake flasks, and the inoculation cell density is 0.5 million cells/mL. The parameters for the shaking incubator are: 125 RPM, and 5% CO2.
Cells were exposed to the identified inhibitory metabolites of Table 1 at their end-of-culture concentration for 6 days in batch culture. […] All of the inhibitory metabolites decreased the antibody productivity (FIG. 4).

CHO-K1 cell line = assay: Fed-batch spiking test, IgG glycan profile by HPLC with Glycan Column; conditions: for impact on G1F formation: versus control group
Experimental: Industrial standard Fed-batch process: CHO-K1 cell line is cultured in corresponding media. Feed for 14 days, with 6 mM glutamine supplement on the inoculation day. The working volume is 30 mL in 125 mL shake flasks, and the inoculation cell density is 0.5 million cells/mL. The parameters for the shaking incubator are: 125 RPM, and 5% CO2. The feeding strategy is 10% corresponding feed everyday starting from day 3 to day 13.
In the standard industrial fed-batch process, cells were exposed to the inhibitors for a long period of time. This experiment mimics the therapeutic antibody production process, and spikes the inhibitors at their end-of-culture cellular concentration. ICA was confirmed as a known inhibitor and was used as a positive inhibitor control. Mixture condition excluded ICA and included AA, HICA, CMP, MSA, TRI, NAP. The process lasted for 14 days, and starting from day 6, the cell density under the inhibitor conditions were lower than the negative control batch.
IgG titer was measured by HPLC with a Protein A column. Product quality was quantified by the IgG glycan profile, which was measured by HPLC with a Glycan Column.

Row | SMILES | decrease in accumulation versus control (CHO-S cells; Bcat1 transfected clone) [%] | decrease in accumulation versus control (CHO-S cells; Got1 transfected clone) [%] | decrease in accumulation versus control (CHO-S cells; Hadhb transfected clone) [%] | cell density versus control group (CHO K-1) | impact on G1F formation (CHO-K1 cell line) | decrease in accumulation versus control (CHO-S cells; Slc35a1 transfected clone) [%] | also measured
1 | C[n+]1cccc(C(=O)[O-])c1 [TRI, trigonelline] | 42.96 | 40.43 | 35.38 | – | – | – | decrease in accumulation versus control (CHO-S cells; Cat transfected clone): 27.8%
2 | O=C(O)C=C(CC(=O)O)C(=O)O [AA, aconitic acid] | – | – | – | lower cell density than the control group | higher impact on G1F formation | – | impact on G2F formation (CHO-K1 cell line; Day 14, versus control group): totally inhibits the G2F formation; also recorded: G2F was not formed
3 | O=C(O)c1c[nH]c2ccccc12 [ICA, indole-3-carboxylic acid, reference compound] | – | – | – | lower cell density than the control group | higher impact on G1F formation | – | –
4 | CC(C)CC(O)C(=O)O (stereo not drawn) [HICA, α-hydroxyisocaproic acid] | 72.31 | – | 27.05 | – | higher impact on G1F formation | 73.51 | decrease in accumulation versus control (CHO-S cells; Adh5 transfected clone): 86.13%
5 | CC(CC(=O)O)C(=O)O (centres unmarked) [MSA, methylsuccinic acid] | – | – | – | – | higher impact on G1F formation | – | –
6 | Nc1ccn([C@@H]2O[C@H](COP(=O)(O)O)[C@@H](O)[C@H]2O)c(=O)n1 [CMP, cytidine-5′-monophosphate] | – | 35.68 | – | lower cell density than the control group | higher impact on G1F formation | 50.63 | decrease in accumulation versus control (CHO-S cells; Hoga1 transfected clone): 33.59%
